Assay results from patent US20260125411A1, “COMPOUND EMITTING LIGHT UNDER SPECIFIC CONDITIONS, AND METHOD FOR DETECTING CANCER STEM CELLS USING SAME” (Kyoto University, priority 2022, published 2026).

What was measured:
[1] = system: KATO-III cells; assay: Observation with confocal microscope, KATO-III; assay type: cell-based, human; settings: FDG 20 μM, ex 488 nm, detection 500-600 nm
Method: (§1) Fluorescence imaging was performed using a confocal microscope LSM710 (Carl Zeiss AG). The excitation light used was at 488 nm (detection wavelength: 500-600 nm) and 633 nm (detection wavelength: 647-759 nm).
(§2) The cells were seeded in a 35 mm micro-Dish (μ-Dish 35 mm, high, ibidi, Germany) and cultured for 24 hours, followed by washing with DMEM (for SUIT-2 cells, NIH3T3 cells, HUVEC cells) or RPMI-1640 (for KATO-3 cells) containing no phenol red and no FBS. A dye and Aldefluor™ (StemCell Technologies, Inc., Canada) or FDG (Sigma-Aldrich, USA) were dissolved in DMSO and diluted in the medium. The cells were treated with 2 mL of the medium containing the dye and Aldefluor™ or FDG and cultured in air containing 5% CO2 at 37° C. for one hour, followed by observation with the confocal microscope. The number of cells seeded was 10×10^5 for KATO-3 cells, and 8×10^5 for the other cell types. The final concentrations of CHO_βgal, Aldefluor™, and FDG were 20 μM, 1 μM, and 20 μM, respectively. The DMSO content was 2%. FIG. 4 and FIG. 5 show the measurement results.

[2] = system: SUIT-2 cells; assay: Observation with confocal microscope, SUIT-2; assay type: cell-based, human; settings: SUIT-2, FDG 20 μM, ex 488 nm, detection 500-600 nm
Method: as §1, §2

Structure (SMILES): O=C1OC2(c3ccc(O[C@@H]4O[C@H](CO)[C@H](O)[C@H](O)[C@H]4O)cc3Oc3cc(O[C@@H]4O[C@H](CO)[C@H](O)[C@H](O)[C@H]4O)ccc32)c2ccccc21 [FDG, fluorescein di-β-D-galactopyranoside]
- emission in cells [1]: emission was observed throughout the cells
- emission in cells [2]: emission was observed throughout the cells
